Data reported in BindingDB's records for PubMed 38266553 (China Pharmaceutical University).

Assays:
[1] = target: Prostaglandin G/H synthase 2 (Homo sapiens) (UniProt P35354); assay: Inhibition of COX-2 (unknown origin) using arachidonic acid as substrate preincubated for 10 mins followed by substrate addition and measured after 5 mins by fluorescence based analysis
[2] = target: Prostaglandin G/H synthase 1 (Homo sapiens) (UniProt P23219); assay: Inhibition of COX-1 (unknown origin) using arachidonic acid as substrate preincubated for 10 mins followed by substrate addition and measured after 5 mins by fluorescence based analysis

Prostaglandin G/H synthase 2 (Homo sapiens), sequence (P35354 whole entry, looked up): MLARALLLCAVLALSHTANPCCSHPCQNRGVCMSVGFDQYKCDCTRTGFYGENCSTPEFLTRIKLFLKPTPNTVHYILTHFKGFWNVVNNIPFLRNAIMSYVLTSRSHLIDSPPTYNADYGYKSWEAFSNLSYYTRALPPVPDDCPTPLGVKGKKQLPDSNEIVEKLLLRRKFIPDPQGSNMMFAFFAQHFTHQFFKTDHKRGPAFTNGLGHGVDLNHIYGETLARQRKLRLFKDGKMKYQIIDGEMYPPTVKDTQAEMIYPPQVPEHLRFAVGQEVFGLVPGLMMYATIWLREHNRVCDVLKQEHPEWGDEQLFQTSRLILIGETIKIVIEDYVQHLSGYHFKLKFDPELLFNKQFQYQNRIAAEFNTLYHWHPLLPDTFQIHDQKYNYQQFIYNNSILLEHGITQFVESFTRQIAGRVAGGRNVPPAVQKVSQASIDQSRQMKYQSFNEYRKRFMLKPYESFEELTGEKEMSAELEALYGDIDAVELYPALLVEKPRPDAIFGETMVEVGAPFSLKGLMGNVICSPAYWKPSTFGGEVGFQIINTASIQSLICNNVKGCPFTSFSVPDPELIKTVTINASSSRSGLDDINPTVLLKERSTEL

IC50 [1] | IC50 [2] | Structure (SMILES)
134 nM | 321 nM | CCc1nn(-c2ccccc2)c(O)c1Cc1ccc(C(=O)NO)cc1
75 nM | 5730 nM | Cc1[nH]n(-c2ccccc2)c(=O)c1Cc1ccc(C(=O)NO)cc1
144 nM | 1290 nM | CC(C)(C)c1nn(-c2ccccc2)c(O)c1Cc1ccc(C(=O)NO)cc1
58 nM | 1360 nM | Cc1nn(-c2cccc(Cl)c2)c(O)c1Cc1ccc(C(=O)NO)cc1
